Bridge positions count the residues as written; N and C are the ends. Peptide text beside a SMILES is read from it.
Experiments:
[1] = Inhibition of voltage-gated calcium channel Cav-mediated late-sustained current in Periplaneta americana (American cockroach) DUM neurons assessed as measured at holding potential -80 mV depolarized to +40 mV after 10 min by whole cell patch clamp assay in presence of CdCl2
[2] = Inhibition of voltage-gated calcium channel Cav-mediated fast-transient current in Periplaneta americana (American cockroach) DUM neurons assessed as measured at holding potential -80 mV depolarized to +40 mV after 10 min by whole cell patch clamp assay in presence of CdCl2

IC50 [1] | IC50 [2] | SMILES
19 nM | 25 nM | CSCC[C@@H]1NC(=O)[C@H](CCCCN)NC(=O)[C@H](Cc2ccccc2)NC(=O)[C@H](CCC(N)=O)NC(=O)[C@@H](NC(=O)[C@@H](N)Cc2ccc(O)cc2)CSSC[C@@H]2NC(=O)[C@@H]3CSSC[C@@H](C(=O)N[C@@H](CCCCN)C(=O)N[C@@H](CC(C)C)C(=O)N[C@@H](CC(N)=O)C(=O)N[C@@H](CC(C)C)C(=O)O)NC(=O)[C@H](Cc4c[nH]c5ccccc45)NC(=O)[C@H](CC(C)C)NC(=O)[C@H](CCCNC(=N)N)NC(=O)[C@H](CSSC[C@H](NC(=O)[C@H]([C@@H](C)O)NC(=O)[C@H](Cc4c[nH]c5ccccc45)NC1=O)C(=O)N[C@@H](CC(=O)O)C(=O)N[C@@H](CO)C(=O)N[C@@H](CCC(=O)O)C(=O)N[C@@H](CCCNC(=N)N)C(=O)N[C@@H](CCCCN)C(=O)N3)NC(=O)[C@H](C(C)C)NC(=O)[C@H](CCSC)NC(=O)[C@H](CC(=O)O)NC(=O)[C@H](CCC(=O)O)NC2=O
3.7 nM | 3.7 nM | CSCC[C@@H]1NC(=O)[C@H](CC(=O)O)NC(=O)[C@H](CCC(=O)O)NC(=O)[C@@H]2CSSC[C@H](NC(=O)[C@@H](N)Cc3ccc(O)cc3)C(=O)N[C@@H](CCC(N)=O)C(=O)N[C@@H](CCCCN)C(=O)N[C@@H](Cc3ccccc3)C(=O)N[C@@H](CC(C)C)C(=O)N[C@@H](Cc3c[nH]c4ccccc34)C(=O)N[C@@H]([C@@H](C)O)C(=O)N[C@H]3CSSC[C@H](NC(=O)[C@H](C(C)C)NC1=O)C(=O)N[C@@H](CCC(=O)O)C(=O)N[C@@H](CC(C)C)C(=O)N[C@@H](Cc1c[nH]c4ccccc14)C(=O)N[C@H](C(=O)N[C@@H](CCCCN)C(=O)N[C@@H](CC(C)C)C(=O)N[C@@H](CCC(=O)O)C(=O)N[C@@H](CCCCN)C(=O)O)CSSC[C@H](NC(=O)[C@H](CCCCN)NC(=O)[C@H](CCCNC(=N)N)NC(=O)[C@H](CCC(=O)O)NC(=O)[C@H]([C@@H](C)O)NC(=O)[C@H](CC(=O)O)NC3=O)C(=O)N2 (H-YCQKFLWTCDTERKCCEDMVCELWCKLEK-OH; disulfide 2-16, 9-21, 15-25)
26 nM | 25 nM | CSCC[C@@H]1NC(=O)[C@H](CC(=O)O)NC(=O)[C@H](CCC(=O)O)NC(=O)[C@@H]2CSSC[C@H](NC(=O)[C@@H](N)Cc3ccc(O)cc3)C(=O)N[C@@H](CCC(N)=O)C(=O)N[C@@H](CCCCN)C(=O)N[C@@H](Cc3ccccc3)C(=O)N[C@@H](CC(C)C)C(=O)N[C@@H](Cc3c[nH]c4ccccc34)C(=O)N[C@@H]([C@@H](C)O)C(=O)N[C@H]3CSSC[C@H](NC(=O)[C@H](C(C)C)NC1=O)C(=O)N[C@@H](CCC(=O)O)C(=O)N[C@@H](CC(C)C)C(=O)N[C@@H](Cc1c[nH]c4ccccc14)C(=O)N[C@H](C(=O)N[C@@H](CCCCN)C(=O)N[C@@H](Cc1ccc(O)cc1)C(=O)N[C@@H](CCCCN)C(=O)N[C@@H](CCC(=O)O)C(=O)O)CSSC[C@H](NC(=O)[C@H](CCCCN)NC(=O)[C@H](CCCNC(=N)N)NC(=O)[C@H](CCC(=O)O)NC(=O)[C@H]([C@@H](C)O)NC(=O)[C@H](CC(=O)O)NC3=O)C(=O)N2 (H-YCQKFLWTCDTERKCCEDMVCELWCKYKE-OH; disulfide 2-16, 9-21, 15-25)

— BindingDB's records for doi:10.1124/mol.110.070540 (University of Technology Sydney, 2011)
